Test [1] has as its target T1, SUMO-activating enzyme (Homo sapiens, UniProt Q9UBT2). Nature of the test: blockers of SAE1/SAE2–UBC9 SUMO transfer – biochemical, HTRF, uHTS, primary screen (AID 2006). Format: protein-complex assay.
In test [2] the target is T1, SUMO-activating enzyme. The experiment in a line: blockers of UBC9-mediated SUMO conjugation – biochemical, AlphaScreen, SUMOylation inhibitor project, confirmation (AID 2018). Format: functional. On the technique in general: Alpha assays give light when donor and acceptor beads are brought close together.
The next test addresses Large T antigen (Simian virus 40, UniProt P03070). Format: functional, Betapolyomavirus macacae.
The nature of test [3]: viability loss in THP-1 monocytes – THP-1 cells, cytotoxicity control for Vif-APOBEC3G degradation inhibitor project, dose response (AID 1117359). In kind it is functional. As to conditions: THP-1.
Test [4] can be described thus: viability loss in Vero cells – cytotoxicity control for Vif-APOBEC3G degradation inhibitor project, dose response (AID 1117358). Format: functional. The note with it: Vero.
Another test has as its target Beta-galactosidase (Escherichia coli, UniProt Q8VNN2). Nature of the test: PubChem AID 485352. Format: functional.
The next test deals with Cytochrome P450 2C9 (Homo sapiens, UniProt P11712).
Chain of Cytochrome P450 2C9 (P11712 whole entry): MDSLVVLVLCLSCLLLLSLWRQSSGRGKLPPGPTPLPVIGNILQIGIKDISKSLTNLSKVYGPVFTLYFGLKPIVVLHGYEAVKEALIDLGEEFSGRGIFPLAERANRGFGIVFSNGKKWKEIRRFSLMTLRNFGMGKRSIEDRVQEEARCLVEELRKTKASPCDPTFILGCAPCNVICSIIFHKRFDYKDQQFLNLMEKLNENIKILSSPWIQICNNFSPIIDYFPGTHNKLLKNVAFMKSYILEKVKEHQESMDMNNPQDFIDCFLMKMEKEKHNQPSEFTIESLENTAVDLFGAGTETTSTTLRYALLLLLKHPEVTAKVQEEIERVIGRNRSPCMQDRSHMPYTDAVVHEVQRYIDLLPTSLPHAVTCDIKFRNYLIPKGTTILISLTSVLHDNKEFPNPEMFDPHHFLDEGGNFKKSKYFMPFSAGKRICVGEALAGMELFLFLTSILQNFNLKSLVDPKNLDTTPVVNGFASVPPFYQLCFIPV
The next test deals with Jurkat. The experiment in a line: SAR Analysis of small molecule inhibitors of T-cell specific antigen receptor-induced NF-kB activation in a Jurkat cell line using a luminescence assay - Set 2. [Related pubchem assays (depositor defined):AID435003, AID435012, AID465]. As to conditions: Homo sapiens. In kind it is functional, cell-based.
Test [5] concerns the target Heat shock protein HSP 90-alpha (Homo sapiens, UniProt P07900). In kind it is functional, organism-based.
Test [6] is described as follows: HEK-293T viability loss after treatment – luminescence, T-cell screen hits, cytotoxicity control for TCR NF-kB inhibitor project, dose response (AID 489026).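 Note: cells exposed to compound about 14 hours before the viability readout.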 In kind it is functional, cell-based.
Test [7] can be described thus: Counterscreen for AddAB inhibitors: absorbance-based bacterial cell-based high throughput dose response assay for inhibitors of bacterial viability. [Related pubchem assays (depositor defined):AID435030, AID449728, AID449731, AID488942, AID488955, AID488956]. In kind it is functional. On the technique in general: The purpose of a counterscreen is to sort out artefacts and off-target activity.

The nature of test [8]: DRD fibroblast viability loss – cell-based, non-viral oncogenic, luminescence, dose response (AID 1934). Format: functional. The note with it: Homo sapiens.
Test [9] has as its system BJ. The experiment in a line: cells. In kind it is functional, cell-based. As to conditions: Homo sapiens.
The target of test [10] is G-protein coupled receptor 55 (Homo sapiens, UniProt Q9Y2T6). Nature of the test: selective activators of receptor GPR55 – imaging, U2OS cells, beta-arrestin-GFP redistribution, primary screen (AID 1961). Format: functional.
Chain of G-protein coupled receptor 55 (Q9Y2T6 whole entry): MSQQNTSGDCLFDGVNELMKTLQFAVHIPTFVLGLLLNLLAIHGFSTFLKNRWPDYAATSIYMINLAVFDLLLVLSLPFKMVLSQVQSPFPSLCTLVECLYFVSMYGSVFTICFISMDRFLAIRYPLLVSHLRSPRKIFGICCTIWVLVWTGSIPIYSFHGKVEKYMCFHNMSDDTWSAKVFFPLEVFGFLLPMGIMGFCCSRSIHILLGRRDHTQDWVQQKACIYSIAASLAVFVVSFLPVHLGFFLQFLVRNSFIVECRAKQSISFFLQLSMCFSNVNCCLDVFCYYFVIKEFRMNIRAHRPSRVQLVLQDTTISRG
A short description of test [11]: Luminescence Cell-Based Dose Response HTS to Identify Inhibitors of 5'UTR Stem-Loop Driven Prion Protein mRNA Translation in H4 Neuroglioblastoma Cells. [Related pubchem assays: 1827 (Project Summary), 1813 (Primary HTS)]. In kind it is functional.
Test [12] has as its target T2, Tyrosyl-DNA phosphodiesterase 2 (Homo sapiens, UniProt O95551).
T2 sequence (O95551 whole entry): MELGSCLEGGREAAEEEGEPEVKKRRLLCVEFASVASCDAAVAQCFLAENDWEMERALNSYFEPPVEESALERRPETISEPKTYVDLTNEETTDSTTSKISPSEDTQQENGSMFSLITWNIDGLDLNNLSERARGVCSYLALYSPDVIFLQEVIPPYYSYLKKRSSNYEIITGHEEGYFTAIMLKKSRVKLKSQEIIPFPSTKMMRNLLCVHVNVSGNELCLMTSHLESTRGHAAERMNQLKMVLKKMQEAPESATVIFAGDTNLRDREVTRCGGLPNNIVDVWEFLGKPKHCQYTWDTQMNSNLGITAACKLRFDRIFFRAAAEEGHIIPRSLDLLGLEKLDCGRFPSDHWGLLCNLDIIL
The experiment in a line: potency against TDP2 phosphodiesterase activity – biochemical, epi absorbance, IC50, dose response (AID 743297).

Test [13] concerns BJ. Nature of the test: growth inhibition of engineered Ras-driven BJ cells – cell-based, alamar blue fluorescence, cherrypicked samples, dose response (AID 2631).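 Note: confirmatory dose-response assay in RAS-dependent BJ fibroblasts engineered with TERT, LT and ST, with cytotoxicity read by fluorescence.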 Format: functional. As to conditions: Homo sapiens.
Test [14] in a line: general cell-killing toxicity readout – plate reader, dry powder samples, cytotoxicity control for PAX8 inhibitor project, dose response (AID 743021). Format: functional, cell-based.
Test [15] is described as follows: mitochondrial function rescue without frataxin homolog – Friedreich's ataxia, plus single-dose screen, dose response (AID 1465).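 Note: yeast depleted of Yfh1p frataxin homolog grown on glycerol needing respiration; WST-1 tetrazolium dye reduction as measure of cellular dehydrogenase metabolic activity.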 Format: functional.
The target in test [16] is T3, Ubiquitin-conjugating enzyme E2 N (Homo sapiens, UniProt P61088).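 Note: Dose-response confirmation in a TR-FRET assay detecting UBC13-driven polyubiquitin chain formation, inhibition measured.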
T3 sequence (P61088 whole entry): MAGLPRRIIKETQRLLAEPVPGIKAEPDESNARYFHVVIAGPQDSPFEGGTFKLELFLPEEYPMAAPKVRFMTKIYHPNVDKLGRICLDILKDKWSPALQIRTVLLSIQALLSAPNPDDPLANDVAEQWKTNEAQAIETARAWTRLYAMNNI
In kind it is functional.

Test [17] is described as follows: THP-1 cell cytotoxicity, dose response, cytotoxicity control for non-replicating M. tuberculosis project (AID 489025). In kind it is functional.
A further test concerns the target T4, Insulin-degrading enzyme (Homo sapiens, UniProt P14735).
T4 sequence (P14735 whole entry): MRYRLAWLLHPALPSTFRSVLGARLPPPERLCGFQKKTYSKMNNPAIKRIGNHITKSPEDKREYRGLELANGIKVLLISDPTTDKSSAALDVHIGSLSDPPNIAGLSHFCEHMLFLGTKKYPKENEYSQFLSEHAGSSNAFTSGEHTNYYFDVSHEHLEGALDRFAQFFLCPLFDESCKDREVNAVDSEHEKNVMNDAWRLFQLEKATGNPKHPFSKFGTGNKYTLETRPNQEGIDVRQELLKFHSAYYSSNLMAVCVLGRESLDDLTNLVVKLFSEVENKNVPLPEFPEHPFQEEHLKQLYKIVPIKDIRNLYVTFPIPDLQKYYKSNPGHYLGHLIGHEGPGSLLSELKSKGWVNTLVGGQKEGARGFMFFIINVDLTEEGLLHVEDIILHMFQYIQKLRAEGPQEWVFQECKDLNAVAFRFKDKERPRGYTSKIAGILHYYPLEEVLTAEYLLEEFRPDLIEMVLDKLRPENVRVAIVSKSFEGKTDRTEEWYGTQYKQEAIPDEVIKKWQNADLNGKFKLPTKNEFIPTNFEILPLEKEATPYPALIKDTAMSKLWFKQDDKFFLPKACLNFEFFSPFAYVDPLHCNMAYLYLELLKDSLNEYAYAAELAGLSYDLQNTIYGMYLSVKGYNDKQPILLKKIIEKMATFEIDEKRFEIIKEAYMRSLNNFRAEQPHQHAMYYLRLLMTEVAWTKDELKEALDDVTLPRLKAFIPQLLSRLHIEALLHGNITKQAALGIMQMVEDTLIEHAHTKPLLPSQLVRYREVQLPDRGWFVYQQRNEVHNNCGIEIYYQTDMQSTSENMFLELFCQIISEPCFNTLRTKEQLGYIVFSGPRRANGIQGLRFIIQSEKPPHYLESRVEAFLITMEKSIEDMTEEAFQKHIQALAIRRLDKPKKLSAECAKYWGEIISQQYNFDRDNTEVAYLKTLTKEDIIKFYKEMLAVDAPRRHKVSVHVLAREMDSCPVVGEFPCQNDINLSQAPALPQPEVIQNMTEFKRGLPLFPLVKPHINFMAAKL
Nature of the test: recombinant IDE activation, cell-free – biochemical, fluorescence polarization, counter-screen for IDE activator project, dose response (AID 588681). (Fluorescence polarisation rises when a labelled molecule tumbles more slowly, as on binding a larger partner.)

Activity calls are given as the source filed them. A value given as a limit tells only on which side of the number the result lay.

Six compounds from ChEMBL document CHEMBL1201862, “PubChem BioAssay data set” (2004) can be followed below.

Broadly, the IC50 is the concentration needed to halve the response being measured. One may read the CC50 as the concentration giving 50% cytotoxicity. What is called EC50 is the concentration that produces a half-maximal response. The AC50 is the concentration giving half of the maximal activity seen.

T1 sequence (Q9UBE0 whole entry): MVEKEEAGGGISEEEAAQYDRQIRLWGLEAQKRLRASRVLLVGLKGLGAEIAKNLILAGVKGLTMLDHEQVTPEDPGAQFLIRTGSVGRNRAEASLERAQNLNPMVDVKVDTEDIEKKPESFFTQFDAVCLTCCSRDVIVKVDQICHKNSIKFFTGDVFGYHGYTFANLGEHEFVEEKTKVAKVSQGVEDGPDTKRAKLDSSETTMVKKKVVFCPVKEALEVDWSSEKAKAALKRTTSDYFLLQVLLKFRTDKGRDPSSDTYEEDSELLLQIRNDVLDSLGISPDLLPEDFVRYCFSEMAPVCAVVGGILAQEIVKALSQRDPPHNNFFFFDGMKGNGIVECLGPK
T1 sequence (Q9UBT2 whole entry): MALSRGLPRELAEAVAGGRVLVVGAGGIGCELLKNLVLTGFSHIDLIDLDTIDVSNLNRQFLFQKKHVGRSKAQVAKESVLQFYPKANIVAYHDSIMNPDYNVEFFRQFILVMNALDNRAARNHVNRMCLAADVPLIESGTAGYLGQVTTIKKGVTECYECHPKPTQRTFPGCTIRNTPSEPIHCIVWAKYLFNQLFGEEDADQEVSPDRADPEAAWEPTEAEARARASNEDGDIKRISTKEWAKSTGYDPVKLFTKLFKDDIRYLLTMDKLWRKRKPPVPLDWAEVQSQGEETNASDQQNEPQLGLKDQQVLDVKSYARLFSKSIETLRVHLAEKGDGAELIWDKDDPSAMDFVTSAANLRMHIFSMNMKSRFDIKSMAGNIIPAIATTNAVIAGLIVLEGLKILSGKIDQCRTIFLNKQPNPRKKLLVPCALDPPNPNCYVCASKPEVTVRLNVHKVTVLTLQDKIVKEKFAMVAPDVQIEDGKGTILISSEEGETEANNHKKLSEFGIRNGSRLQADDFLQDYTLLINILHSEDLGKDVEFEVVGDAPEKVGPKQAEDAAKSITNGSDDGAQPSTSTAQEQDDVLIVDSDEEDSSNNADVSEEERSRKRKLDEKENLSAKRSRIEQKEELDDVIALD
Chain of Beta-galactosidase (Q8VNN2 whole entry): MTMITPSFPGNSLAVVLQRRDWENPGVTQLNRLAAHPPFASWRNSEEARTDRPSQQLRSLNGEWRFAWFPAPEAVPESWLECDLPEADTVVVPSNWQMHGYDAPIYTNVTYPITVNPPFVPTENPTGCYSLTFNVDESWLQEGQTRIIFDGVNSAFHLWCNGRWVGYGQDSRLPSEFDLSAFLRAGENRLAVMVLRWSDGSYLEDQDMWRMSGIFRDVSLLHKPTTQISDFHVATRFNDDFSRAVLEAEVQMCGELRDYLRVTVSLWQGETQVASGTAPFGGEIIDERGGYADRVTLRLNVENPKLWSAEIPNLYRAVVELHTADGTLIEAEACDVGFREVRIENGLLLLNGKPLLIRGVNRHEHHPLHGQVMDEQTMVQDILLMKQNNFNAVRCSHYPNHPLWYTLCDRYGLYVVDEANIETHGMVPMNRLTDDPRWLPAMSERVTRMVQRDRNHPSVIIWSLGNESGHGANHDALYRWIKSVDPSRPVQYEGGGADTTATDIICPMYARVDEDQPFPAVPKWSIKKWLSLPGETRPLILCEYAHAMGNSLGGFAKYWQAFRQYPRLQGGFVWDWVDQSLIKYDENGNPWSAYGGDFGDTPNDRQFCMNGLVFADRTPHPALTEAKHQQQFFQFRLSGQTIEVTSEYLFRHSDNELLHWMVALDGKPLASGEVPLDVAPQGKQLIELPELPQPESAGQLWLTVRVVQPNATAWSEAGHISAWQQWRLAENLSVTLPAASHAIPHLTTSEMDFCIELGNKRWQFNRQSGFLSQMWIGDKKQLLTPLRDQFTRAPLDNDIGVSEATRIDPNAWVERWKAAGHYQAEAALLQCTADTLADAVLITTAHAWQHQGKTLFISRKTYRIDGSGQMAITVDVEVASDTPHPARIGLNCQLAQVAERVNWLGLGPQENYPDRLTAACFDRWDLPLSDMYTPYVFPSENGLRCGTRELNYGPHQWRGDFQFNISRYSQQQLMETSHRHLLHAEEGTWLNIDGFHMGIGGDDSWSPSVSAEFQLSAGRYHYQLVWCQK
Chain of Large T antigen (P03070 whole entry): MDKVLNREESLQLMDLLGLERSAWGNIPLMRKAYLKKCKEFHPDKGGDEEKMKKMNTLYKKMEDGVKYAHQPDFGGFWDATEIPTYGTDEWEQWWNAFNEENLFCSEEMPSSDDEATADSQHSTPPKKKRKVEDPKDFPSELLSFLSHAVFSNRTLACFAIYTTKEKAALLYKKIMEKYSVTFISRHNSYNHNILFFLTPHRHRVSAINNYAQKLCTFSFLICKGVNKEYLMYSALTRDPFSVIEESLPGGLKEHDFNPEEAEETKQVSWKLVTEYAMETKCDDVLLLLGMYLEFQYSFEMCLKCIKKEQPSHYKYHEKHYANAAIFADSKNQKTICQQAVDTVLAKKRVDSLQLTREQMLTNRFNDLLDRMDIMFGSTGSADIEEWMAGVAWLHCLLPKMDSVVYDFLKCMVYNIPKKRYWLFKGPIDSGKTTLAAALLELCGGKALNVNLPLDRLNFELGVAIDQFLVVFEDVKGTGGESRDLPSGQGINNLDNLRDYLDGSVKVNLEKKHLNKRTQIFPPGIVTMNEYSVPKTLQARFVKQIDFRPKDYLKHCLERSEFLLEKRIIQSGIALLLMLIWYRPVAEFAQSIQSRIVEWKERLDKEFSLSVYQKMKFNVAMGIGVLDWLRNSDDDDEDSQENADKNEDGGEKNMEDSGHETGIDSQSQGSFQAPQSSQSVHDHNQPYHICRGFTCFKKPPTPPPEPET

On to `CCOC(=O)c1c(C)oc2c1c(/C=N/CCC(=O)O)c(O)c1ccccc12`, for which the concentration for half-maximal inhibition (IC50) on SUMO-activating enzyme [1] was 28.8 µM (active); at SUMO-activating enzyme [2], 3.71 µM (active).

For `O=[N+]([O-])c1c(NCCO)cc(Sc2nc3ccccc3s2)c2nonc12`, the IC50 on Large T antigen is 21.2 µM (active). The CC50 is 22.9 µM (active) in test [3] and > 40 µM (active) in test [4]. Moreover, the EC50 at Beta-galactosidase was > 40 µM (inactive). Also, the AC50 at Cytochrome P450 2C9 was 0.631 µM (inconclusive).

On to `CC(=O)NC(c1ccc2ccccc2c1)c1ccc2cccnc2c1O` (configuration not stated), for which the IC50 in the test with Jurkat is 1.89 µM (active); in test [6], > 80 µM (inactive); in [7], > 118 µM (inactive). Also, the AC50 in [5] was 1.98 µM (active). Moreover, the half-maximal effective concentration (EC50) in test [8] is 6.52 µM (active); in the test with BJ [9], 6.35 µM (active).

As to `CCc1ccc(Nc2n[n+](-c3ccccc3)c(-c3c(Cl)cccc3Cl)s2)cc1`, the EC50 in test [10] is > 32 µM (inactive).

For the compound `CCOC(=O)c1c(C)[nH]c2c1-c1ccccc1C(=O)C2=O`, the EC50 in test [11] was 1.35 µM (active); with BJ [13] it was 0.554 µM (inconclusive); in [15], > 100 µM (active). Also, the IC50 in [12] is 0.915 µM (active). Also, the AC50 in test [14] is 4.93 µM (active).

`CCOC(=O)C1=C(c2ccccc2)N=C(N)NC1c1ccc(OCc2ccc(Cl)cc2)c(OC)c1` (configuration not stated): the IC50 in test [16] is > 20 µM (inactive). Besides, the CC50 in [17] is 9.43 µM (active). The EC50 at Insulin-degrading enzyme was 52.1 µM (inactive).
